Reference: ChEMBL document CHEMBL1201862, “PubChem BioAssay data set” (2004)
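Test compounds were applied to cells in 96-well plates for 48 hours at 5 doses. Here, GI50 denotes the concentration required for 50% inhibition of growth.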 Calls of active or inactive are those of the source. Cut-off read from the data, not from the text of the source: active = GI50 up to about 1.1 µM and inactive = higher.

Experiments:
Assay in all cases: inhibition of tumour cell growth, NCI panel, 48 h
[1] = system: A498
[2] = system: A549
[3] = system: CAKI-1
[4] = system: CCRF-CEM
[5] = system: COLO 205
[6] = system: EKVX
[7] = system: HOP-92
[8] = system: HT-29
[9] = system: LOX IMVI
[10] = system: MCF7
[11] = system: MDA-MB-231
[12] = system: MOLT-4
[13] = system: OVCAR-3
[14] = system: SF-268
[15] = system: SF-295
[16] = system: SNB-19
[17] = system: SR
[18] = system: SW-620
[19] = system: UACC-62
[20] = system: BT-549

Row | SMILES | GI50 [1] | GI50 [2] | GI50 [3] | GI50 [4] | GI50 [5] | GI50 [6] | GI50 [7] | GI50 [8] | GI50 [9] | GI50 [10] | GI50 [11] | GI50 [12] | GI50 [13] | GI50 [14] | GI50 [15] | GI50 [16] | GI50 [17] | GI50 [18] | GI50 [19] | GI50 [20]
1 | O=C(Nc1ccccc1)O/N=C(/CBr)c1ccccc1 | 24 µM (inactive) | 34 µM (inactive) | 14.8 µM (inactive) | 3.52 µM (inactive) | 15.7 µM (inactive) | 17.1 µM (inactive) | 16.1 µM (inactive) | 6.87 µM (inactive) | 3.15 µM (inactive) | 16.7 µM (inactive) | 12.2 µM (inactive) | 3.18 µM (inactive) | 17.7 µM (inactive) | 14.3 µM (inactive) | 26 µM (inactive) | 20.6 µM (inactive) | 3.94 µM (inactive) | 5.35 µM (inactive) | 12.3 µM (inactive) | 
2 | CCOC(=O)c1ccc(N2C(=S)N(C(=O)c3ccccc3)C(=N/c3ccccc3)/C2=N\c2ccccc2)cc1 |  | 52.8 µM (inactive) | 27.6 µM (inactive) |  |  | > 100 µM (inactive) | 26.4 µM (inactive) | > 100 µM (inactive) |  | 55.3 µM (inactive) |  | > 10 µM (inactive) | 25.3 µM (inactive) | > 100 µM (inactive) | 65.9 µM (inactive) | 72.9 µM (inactive) | > 100 µM (inactive) | > 100 µM (inactive) | 29.6 µM (inactive) | 30.5 µM (inactive)
3 | O=C(O)c1ccccc1C(=O)NCC1S(=O)(=O)OCCOS1(=O)=O | > 100 µM (inactive) | > 100 µM (inactive) | > 100 µM (inactive) | > 100 µM (inactive) | > 100 µM (inactive) | > 100 µM (inactive) | > 100 µM (inactive) | > 100 µM (inactive) | > 100 µM (inactive) | > 100 µM (inactive) | > 100 µM (inactive) | > 100 µM (inactive) | > 100 µM (inactive) | > 100 µM (inactive) | > 100 µM (inactive) | > 100 µM (inactive) | > 100 µM (inactive) | > 100 µM (inactive) | > 100 µM (inactive) | 
4 | CC(C)(C)OC(=O)N/N=C(/N)c1ccccc1 |  | > 100 µM (inactive) | > 100 µM (inactive) | > 100 µM (inactive) | > 100 µM (inactive) | > 100 µM (inactive) |  | > 100 µM (inactive) | > 100 µM (inactive) | > 100 µM (inactive) | > 100 µM (inactive) | > 100 µM (inactive) | > 100 µM (inactive) | > 100 µM (inactive) | > 100 µM (inactive) | > 100 µM (inactive) |  |  | > 100 µM (inactive) | > 100 µM (inactive)
5 | C(=C\N1CCCCC1)/c1nnnn1-c1ccccc1 | 54.1 µM (inactive) | > 100 µM (inactive) | 12.4 µM (inactive) | 19.6 µM (inactive) | > 100 µM (inactive) | 23.5 µM (inactive) | 66.1 µM (inactive) | 84.5 µM (inactive) | 17.6 µM (inactive) |  | 20.8 µM (inactive) | 17.4 µM (inactive) | 30.5 µM (inactive) | 27 µM (inactive) | 21.9 µM (inactive) | 32.6 µM (inactive) | 23.4 µM (inactive) | 34.8 µM (inactive) | 15.6 µM (inactive) | 33 µM (inactive)
6 | O=C(O)CC(NC(=O)CP(=O)(O)O)C(=O)O (stereo not drawn) | 2470 µM (inactive) | 47.4 µM (inactive) |  | 682 µM (inactive) | 558 µM (inactive) | 2000 µM (inactive) | 424 µM (inactive) | 185 µM (inactive) | 52.5 µM (inactive) | 381 µM (inactive) | 1360 µM (inactive) | 238 µM (inactive) | 910 µM (inactive) | 180 µM (inactive) | 44.9 µM (inactive) | 103 µM (inactive) |  | 285 µM (inactive) | 79.6 µM (inactive) | 3210 µM (inactive)
7 | CNc1ccc(C)cc1S(=O)(=O)c1ccccc1[N+](=O)[O-] | 62.5 µM (inactive) | 41.3 µM (inactive) |  | 21.4 µM (inactive) | 65.6 µM (inactive) | 51.8 µM (inactive) |  | 48.1 µM (inactive) | 30.9 µM (inactive) | 30 µM (inactive) | > 100 µM (inactive) | 18.4 µM (inactive) | 43.2 µM (inactive) | 53 µM (inactive) | 42.1 µM (inactive) | 78 µM (inactive) | 51.3 µM (inactive) | 69.8 µM (inactive) | 22.1 µM (inactive) | 46.6 µM (inactive)
8 | O=C(NC1CCN(Cc2ccccc2)CC1)c1ccc(I)cc1 | > 100 µM (inactive) | 76.4 µM (inactive) | 70.1 µM (inactive) | 76.7 µM (inactive) | 21.8 µM (inactive) | > 100 µM (inactive) | 34 µM (inactive) | 19.8 µM (inactive) | > 100 µM (inactive) |  | 19.4 µM (inactive) | > 100 µM (inactive) | > 100 µM (inactive) | 63.8 µM (inactive) | 29.5 µM (inactive) | > 100 µM (inactive) | > 100 µM (inactive) | > 100 µM (inactive) | 59.4 µM (inactive) | 87.5 µM (inactive)
9 | COc1cc2cc(C(=O)N3CC(CCl)c4ccc([N+](=O)[O-])cc43)[nH]c2c(OC)c1OC (stereo not drawn) | > 100 µM (inactive) | > 100 µM (inactive) | > 100 µM (inactive) | > 100 µM (inactive) | > 100 µM (inactive) | 30.8 µM (inactive) | > 100 µM (inactive) | 17.4 µM (inactive) | > 100 µM (inactive) | > 100 µM (inactive) | > 100 µM (inactive) | > 100 µM (inactive) | > 100 µM (inactive) | > 100 µM (inactive) | > 100 µM (inactive) | > 100 µM (inactive) |  | > 100 µM (inactive) | > 100 µM (inactive) | > 100 µM (inactive)
10 | N#Cc1nc(/C=C/c2cccnc2)oc1N | > 100 µM (inactive) | 28.4 µM (inactive) | > 100 µM (inactive) | > 100 µM (inactive) | > 100 µM (inactive) | > 100 µM (inactive) | > 100 µM (inactive) | > 100 µM (inactive) | > 100 µM (inactive) | > 100 µM (inactive) | > 100 µM (inactive) | > 100 µM (inactive) | > 100 µM (inactive) | > 100 µM (inactive) | > 100 µM (inactive) | > 100 µM (inactive) | > 100 µM (inactive) | > 100 µM (inactive) | > 100 µM (inactive) | 
11 | NCC(=O)NC1(c2cc3ccccc3s2)CCCCC1 | 31 µM (inactive) | 74.1 µM (inactive) | > 100 µM (inactive) | 22 µM (inactive) | 17.9 µM (inactive) | 19.9 µM (inactive) | 22.2 µM (inactive) | 18.6 µM (inactive) | 51.1 µM (inactive) | 27.2 µM (inactive) |  |  | > 100 µM (inactive) | 28.4 µM (inactive) | 59.7 µM (inactive) | > 100 µM (inactive) | < 0.01 µM (active) | 91 µM (inactive) | 19.7 µM (inactive) | 54.1 µM (inactive)
12 | CC[C@@]1(C[C@H]2C[C@@]3(C(=O)OC)c4[nH]c5ccccc5c4CCN3C2=O)COC2(CCCCC2)O1 |  | 24.5 µM (inactive) | 36.2 µM (inactive) |  | 34.4 µM (inactive) | 61.9 µM (inactive) |  | 27.4 µM (inactive) | 32.8 µM (inactive) | 25.5 µM (inactive) | > 100 µM (inactive) | 16.6 µM (inactive) | 51.2 µM (inactive) | 30.3 µM (inactive) | 33.4 µM (inactive) | 12.5 µM (inactive) | 31.3 µM (inactive) |  | 23.5 µM (inactive) | 47.9 µM (inactive)
13 | COc1ccc(/C=N/c2ccc(-c3nc4ccccc4s3)cc2)cc1OC | 18.8 µM (inactive) | 36.5 µM (inactive) | 31.3 µM (inactive) | 12.8 µM (inactive) | 19.3 µM (inactive) | 32.9 µM (inactive) | 22.4 µM (inactive) | 30.7 µM (inactive) | 21.8 µM (inactive) |  |  | 17.9 µM (inactive) | 13.4 µM (inactive) | 28 µM (inactive) | 25.4 µM (inactive) | 54.1 µM (inactive) | 27.8 µM (inactive) | 34.8 µM (inactive) | 20 µM (inactive) | 30.5 µM (inactive)
14 | Cn1c(=O)c2c(nc3sc4ncccc4c(=O)n32)n(C)c1=O | > 100 µM (inactive) |  | > 100 µM (inactive) | > 100 µM (inactive) | > 100 µM (inactive) | > 100 µM (inactive) | > 100 µM (inactive) | > 100 µM (inactive) | > 100 µM (inactive) | > 100 µM (inactive) | > 100 µM (inactive) | > 100 µM (inactive) | > 100 µM (inactive) | > 100 µM (inactive) | > 100 µM (inactive) | > 100 µM (inactive) |  | > 100 µM (inactive) | > 100 µM (inactive) | > 100 µM (inactive)
15 | Cc1ccc(N(C)S(=O)(=O)c2ccccc2[N+](=O)[O-])cc1 |  | 39.6 µM (inactive) | 48.2 µM (inactive) |  | 57.3 µM (inactive) | 55.1 µM (inactive) |  | 34 µM (inactive) | 32.4 µM (inactive) | 49 µM (inactive) | 41 µM (inactive) |  | 44 µM (inactive) | 48.4 µM (inactive) | 52.1 µM (inactive) | 64.9 µM (inactive) | 47.4 µM (inactive) | 58.3 µM (inactive) |  | 23.3 µM (inactive)
16 | O=[N+]([O-])/C(C(Cl)=C(Cl)Cl)=C(\Nc1cccc2ccccc12)n1nnc2ccccc21 | 33.5 µM (inactive) | 77.3 µM (inactive) | > 100 µM (inactive) | 28.9 µM (inactive) | 21.5 µM (inactive) | > 100 µM (inactive) |  | 63.5 µM (inactive) | 35.4 µM (inactive) | 41.5 µM (inactive) | 47.1 µM (inactive) |  | 46.8 µM (inactive) | 48 µM (inactive) | 32.1 µM (inactive) | 32.9 µM (inactive) |  | 58.5 µM (inactive) | 40.9 µM (inactive) | 21.7 µM (inactive)
